In publication PMC5598505 (Toxicology Reports, 2014):

Biological target: T1, aromatase (CYP19A1) (Homo sapiens, UniProt P11511)
T1 sequence (P11511 1-503): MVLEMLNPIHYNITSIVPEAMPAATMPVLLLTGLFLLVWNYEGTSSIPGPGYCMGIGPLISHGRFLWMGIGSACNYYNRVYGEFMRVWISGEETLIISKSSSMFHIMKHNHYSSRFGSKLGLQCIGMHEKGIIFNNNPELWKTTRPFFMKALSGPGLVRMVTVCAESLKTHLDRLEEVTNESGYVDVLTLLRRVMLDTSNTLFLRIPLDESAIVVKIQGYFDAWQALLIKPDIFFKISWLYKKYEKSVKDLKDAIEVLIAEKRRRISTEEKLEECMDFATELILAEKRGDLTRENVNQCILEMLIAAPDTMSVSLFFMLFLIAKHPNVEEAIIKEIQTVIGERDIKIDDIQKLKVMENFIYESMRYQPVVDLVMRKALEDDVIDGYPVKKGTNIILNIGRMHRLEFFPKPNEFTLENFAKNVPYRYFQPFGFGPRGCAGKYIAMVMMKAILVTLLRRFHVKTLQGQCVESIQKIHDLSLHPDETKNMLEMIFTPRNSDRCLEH
Assay: tritiated water-release aromatase assay in KGN cells after 24-h exposure
Format: cell-based

- IC50: 8 nM
Compound: CC(C)=CCc1c(O)cc(O)c2c1O[C@H](c1ccc(O)cc1)CC2=O [8-PN, 8-prenylnaringenin]
